According to US11759454B2, “Diazole lactams” (CHEMOCENTRYX, INC., priority 2012, dated 2023):

Target: T1, CCR1 (Homo sapiens, UniProt P32246)
T1 construct: host or cells: THP-1 cells (or freshly isolated monocytes)
T1 sequence (P32246 1-355): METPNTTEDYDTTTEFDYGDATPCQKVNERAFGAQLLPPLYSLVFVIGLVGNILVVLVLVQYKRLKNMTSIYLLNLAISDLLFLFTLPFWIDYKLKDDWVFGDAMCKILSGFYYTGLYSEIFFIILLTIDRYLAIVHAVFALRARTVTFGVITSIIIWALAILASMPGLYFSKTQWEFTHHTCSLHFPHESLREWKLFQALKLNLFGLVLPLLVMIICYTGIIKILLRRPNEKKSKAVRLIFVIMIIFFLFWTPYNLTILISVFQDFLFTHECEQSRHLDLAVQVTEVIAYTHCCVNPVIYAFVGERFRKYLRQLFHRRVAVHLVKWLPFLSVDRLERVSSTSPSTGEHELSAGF
Experiment: Chemotaxis assay (inhibition of CCR1 mediated migration)
Format: cell-based
Conditions: chemotaxis of THP-1 or monocyte cells toward CCR1 chemokine ligand (MIP-1α, CCL15/leukotactin); read-out: Avg Mig IC50
Procedure: THP-1 cells were obtained from ATCC (TIB-202) and cultured as a suspension in RPMI-1640 medium supplemented with 2 mM L-glutamine, 1.5 g/L sodium bicarbonate, 4.5 g/L glucose, 10 mM HEPES, 1 mM sodium pyruvate, 0.05% 2-mercaptoethanol and 10% FBS. Cells were grown under 5% CO2/95% air, 100% humidity at 37° C. and subcultured twice weekly at 1:5 (cells were cultured at a density range of 2×10^5 to 2×10^6 cells/mL) and harvested at 1×10^6 cells/mL. THP-1 cells express CCR1 and can be used in CCR1 binding and functional assays.
Chemotaxis assays were performed using 5 μm pore polycarbonate, polyvinylpyrrolidone-coated filters in 96-well chemotaxis chambers (Neuroprobe; Gaithersburg, Md.) using chemotaxis buffer (Hank's balanced salt solution (HBSS) and 1% FBS). CCR1 chemokine ligands (i.e., MIP-1α, CCL15/Leukotactin; R&D Systems; Minneapolis, Minn.) are use to evaluate compound mediated inhibition of CCR1 mediated migration. Other chemokines (i.e., SDF-1α; R&D Systems; Minneapolis, Minn.) are used as specificity controls. The lower chamber was loaded with 29 μl of chemokine (i.e., 0.1 nM CCL15/Leukotactin) and varying amounts of compound; the top chamber contained 100,000 THP-1 or monocyte cells in 20 μl. The chambers were incubated 1-2 hours at 37° C., and the number of cells in the lower chamber quantified either by direct cell counts in five high powered fields per well or by the CyQuant assay (Molecular Probes), a fluorescent dye method that measures nucleic acid content and microscopic observation.
One of the primary functions of chemokines is their ability to mediate the migration of chemokine receptor-expressing cells, such as white blood cells. To confirm that a compound of interest inhibited not only CCR1 specific binding and signaling (at least as determined by calcium mobilization assays), but also CCR1 mediated migration, a chemotaxis assay was employed. THP-1 myelomonocytic leukemia cells, which resemble monocytes, as wells as freshly isolated monocytes, were used as targets for chemoattraction by CCR1 chemokine ligands (i.e., MIP-1α, CCL15/leukotactin). Cells were placed in the top compartment of a microwell migration chamber, while MIP-1α (or other potent CCR1 chemokine ligand) and increasing concentrations of a compound of interest was loaded in the lower chamber. […] To ascertain a compound of interest's affinity for CCR1 as well as to confirm its ability to inhibit CCR1 mediated cell migration, inhibitory activity was titered over a 1×10^−10 to 1×10^−4 M range of compound concentrations in this chemotaxis assay. In this assay, the amount of compound was varied; while cell number and chemokine agonist concentrations were held constant. After the chemotaxis chambers were incubated 1-2 hours at 37° C., the responding cells in the lower chamber were quantified by labeling with the CyQuant assay (Molecular Probes), a fluorescent dye method that measures nucleic acid content, and by measuring with a Spectrafluor Plus (Tecan). The computer program Prism from GraphPad, Inc. (San Diego, Calif.) was used to calculate IC50 values. IC50 values are those compound concentrations required to inhibit the number of cells responding to a CCR1 agonist by 50%.

| SMILES | IC50 [µM] |
| --- | --- |
| Cc1nc(C(F)(F)F)cn1C1CCN(c2cnn(-c3ccc(F)cc3)c2OC(C)C)C1=O (stereo not drawn) [Compound 1.002] | ≤ 0.1 |
| Cc1nc(C(F)(F)F)cn1C1(C)CCN(c2cnn(-c3ccc(Cl)cc3)c2C(C)C)C1=O (stereo not drawn) [Compound 1.003] | 0.1 to 20 |
| CCc1nc(C(F)(F)F)cn1C1CCN(c2cnn(-c3ccc(Cl)cc3)c2C(C)C)C1=O (stereo not drawn) [Compound 1.004] | ≤ 0.1 |
| Cc1nc(C(F)(F)F)cn1C1CC(C)N(c2cnn(-c3ccc(F)cc3)c2C(C)C)C1=O (stereo not drawn) [Compound 1.005] | 0.1 to 20 |
| Cc1nc(C(F)(F)F)cn1C1CCN(c2cnn(-c3ccc(Cl)cc3)c2C(C)C)C1=O (stereo not drawn) [Compound 1.008] | ≤ 0.1 |
| CC(C)c1c(N2CCC(n3ccc(C(F)(F)F)n3)C2=O)cnn1-c1ccc(F)cc1 (stereo not drawn) [Compound 1.013] | 0.1 to 20 |
| CC(C)c1c(N2CCC(n3nc(-c4ncc[nH]4)c4c(N)ncnc43)C2=O)cnn1-c1ccc(F)cc1 (stereo not drawn) [Compound 1.014] | 0.1 to 20 |
| Cc1c(Cl)c(-c2ncc[nH]2)nn1C1CCN(c2cnn(-c3ccc(F)cc3)c2C(C)C)C1=O (stereo not drawn) [Compound 1.015] | 0.1 to 20 |
| CC(C)c1c(N2CCC(n3cnc(C(F)(F)F)c3)C2=O)cnn1-c1ccc(F)cc1 (stereo not drawn) [Compound 1.016] | 0.1 to 20 |
| Cc1nn(C2CCN(c3cnn(-c4ccc(F)cc4)c3C(C)C)C2=O)c(C(C)(C)O)c1Cl (stereo not drawn) [Compound 1.017] | 0.1 to 20 |
| CC(C)c1c(N2CCC(n3nc(-c4ncc[nH]4)c4cccnc43)C2=O)cnn1-c1ccc(F)cc1 (stereo not drawn) [Compound 1.021] | 0.1 to 20 |
| Cc1nc(C(F)(F)F)cn1C1CCCN(c2cnn(-c3ccc(F)cc3)c2C)C1=O (stereo not drawn) [Compound 1.031] | 0.1 to 20 |
| Cc1nc(C(F)(F)F)cn1C1CCCN(c2cnn(-c3ccc(F)cc3)c2C)C1=O (stereo not drawn) [Compound 1.036] | 0.1 to 20 |
| Cc1cc(C(F)(F)F)nn1C1CCN(c2cnn(-c3ccc(F)cc3)c2)C1=O (stereo not drawn) [Compound 1.038] | 0.1 to 20 |
| Cc1nc(C(F)(F)F)cn1C1CCN(c2cnn(-c3ccc(F)cc3)c2)C1=O (stereo not drawn) [Compound 1.039] | 0.1 to 20 |
| COc1cc(-n2ncc(N3CC[C@H](n4cc(C(F)(F)F)nc4C)C3=O)c2C(C)C)ccc1Cl [Compound 1.041] | 0.1 to 20 |
| Cc1nc(C(F)(F)F)cn1[C@H]1CCN(c2nnn(-c3ccc(Cl)cc3)c2C(C)C)C1=O [Compound 1.042] | ≤ 0.1 |
| Cc1nc(C(F)(F)F)cn1C1CCN(c2cnn(-c3ccc(Cl)cc3)c2C(F)(F)F)C1=O (stereo not drawn) [Compound 1.043] | 0.1 to 20 |
| Cc1nc(C(F)(F)F)cn1C1CCN(c2cnn(-c3ccc(Cl)cc3)c2C2CCC2)C1=O (stereo not drawn) [Compound 1.044] | ≤ 0.1 |
| Cc1nc(C(F)(F)F)cn1[C@H]1CCN(c2cnn(-c3ccc(Cl)cc3)c2C(C)C)C1=O [Compound 1.045] | ≤ 0.1 |

Other lines, results leading:

| IC50 [µM] | SMILES |
| --- | --- |
| 0.1 to 20 | Cc1nc(C(F)(F)F)cn1C1CCN(c2cnn(-c3ccc(F)cc3)c2N(C)C)C1=O (stereo not drawn) [Compound 1.001] |
| ≤ 0.1 | Cc1c(Cl)c(C(F)(F)F)nn1C1CCN(c2cnn(-c3ccc(F)cc3)c2C2CC2)C1=O (stereo not drawn) [Compound 1.006] |
| 0.1 to 20 | CCCc1c(N2CCC(n3nc(C(F)(F)F)c(Cl)c3C)C2=O)cnn1-c1ccc(F)cc1 (stereo not drawn) [Compound 1.007] |
| ≤ 0.1 | Cc1c(Cl)c(C(F)(F)F)nn1C1CC(C)N(c2cnn(-c3ccc(F)cc3)c2C(C)C)C1=O (stereo not drawn) [Compound 1.009] |
| ≤ 0.1 | CCC(C)c1c(N2CCC(n3nc(C(F)(F)F)c(Cl)c3C)C2=O)cnn1-c1ccc(F)cc1 (stereo not drawn) [Compound 1.010] |
| ≤ 0.1 | Cc1c(Cl)c(C(F)(F)F)nn1C1CCN(c2cnn(-c3ccc(Cl)cc3)c2C(C)C)C1=O (stereo not drawn) [Compound 1.011] |
| 0.1 to 20 | C/C=C(\C)c1c(N2CCC(n3nc(C(F)(F)F)c(Cl)c3C)C2=O)cnn1-c1ccc(F)cc1 (stereo not drawn) [Compound 1.012] |
| 0.1 to 20 | Cc1c(Cl)c(C(C)(C)O)nn1C1CCN(c2cnn(-c3ccc(F)cc3)c2C(C)C)C1=O (stereo not drawn) [Compound 1.018] |
| 0.1 to 20 | CCCc1c(N2CCC(n3nc(C(F)(F)F)c(Cl)c3C)C2=O)cnn1-c1cccc(F)c1 (stereo not drawn) [Compound 1.019] |
| 0.1 to 20 | Cc1c(Cl)c(C(F)(F)F)nn1C1CCN(c2cnn(-c3ccc(F)cc3)c2C(C)(C)C)C1=O (stereo not drawn) [Compound 1.020] |
| ≤ 0.1 | Cc1cc(C(F)(F)F)nn1C1CCN(c2cnn(-c3ccc(F)cc3)c2C(C)C)C1=O (stereo not drawn) [Compound 1.022] |
| 0.1 to 20 | Cc1c(Cl)c(C(F)(F)F)nn1C1CCN(c2cnn(-c3cccc(F)c3)c2I)C1=O (stereo not drawn) [Compound 1.023] |
| 0.1 to 20 | Cc1c(Cl)c(C(F)(F)F)nn1C1CCN(c2cnn(-c3cccc(F)c3)c2C2CC2)C1=O (stereo not drawn) [Compound 1.024] |
| ≤ 0.1 | Cc1nc(C(F)(F)F)cn1C1CCN(c2cnn(-c3ccc(F)cc3)c2C(C)C)C1=O (stereo not drawn) [Compound 1.025] |
| 0.1 to 20 | Cc1c(Cl)c(C(F)(F)F)nn1C1CCN(c2cnn(-c3ccc(F)cc3)c2-c2ccccc2)C1=O (stereo not drawn) [Compound 1.026] |
| 0.1 to 20 | Cc1c(Cl)c(C(F)(F)F)nn1C1CCN(c2cnn(-c3cccc(F)c3)c2-c2ccoc2)C1=O (stereo not drawn) [Compound 1.027] |
| ≤ 0.1 | Cc1c(Cl)c(C(F)(F)F)nn1C1CCN(c2cnn(-c3ccc(F)cc3)c2C(C)C)C1=O (stereo not drawn) [Compound 1.028] |
| 0.1 to 20 | Cc1c(N2CCCCC(n3nc(C(F)(F)F)c(Cl)c3C)C2=O)cnn1-c1ccc(F)cc1 (stereo not drawn) [Compound 1.029] |
| 0.1 to 20 | Cc1c(N2CCCC(n3nc(C(F)(F)F)c(Cl)c3C)C2=O)cnn1-c1ccc(F)cc1 (stereo not drawn) [Compound 1.030] |
| ≤ 0.1 | CCc1c(N2CCC(n3nc(C(F)(F)F)c(Cl)c3C)C2=O)cnn1-c1ccc(F)cc1 (stereo not drawn) [Compound 1.032] |
| 0.1 to 20 | Cc1nc(C(F)(F)F)cn1C1CCN(c2cnn(-c3ccc(F)cc3)c2C)C1=O (stereo not drawn) [Compound 1.033] |
| 0.1 to 20 | Cc1c(N2CCC(n3nc(C(F)(F)F)nc3C)C2=O)cnn1-c1ccc(F)cc1 (stereo not drawn) [Compound 1.034] |
| 0.1 to 20 | Cc1c(N2CCC(n3nc(C(F)(F)F)c(Cl)c3C)C2=O)cnn1-c1ccc(F)cc1 (stereo not drawn) [Compound 1.035] |
| 0.1 to 20 | Cc1c(Cl)c(C(F)(F)F)nn1C1CCCN(c2cnn(-c3ccc(F)cc3)c2)C1=O (stereo not drawn) [Compound 1.037] |
| 0.1 to 20 | Cc1c(Cl)c(C(F)(F)F)nn1C1CCN(c2cnn(-c3ccc(F)cc3)c2)C1=O (stereo not drawn) [Compound 1.040] |

System: CCR1 bearing neutrophils
Experiment: Murine model of inflammation (thioglycolate induced peritoneal inflammation)
Format: in vivo
Conditions: 3% thioglycolate into the peritoneum
Procedure: Murine Model of Inflammation
A method of inducing peritoneal inflammation by the introduction of 3% thioglycolate into the peritoneum is well know in the art. Following the introduction of thioglycolate, a rapid influx of immune cells to the site, primarily CCR1 bearing neutrophils, results in local inflammation at 24 hours. A peritoneal exudate can be sampled, and the cell number and composition can be assessed to determine the anti-inflammatory properties of a compound of interest administered before, during or after the thioglycolate induction.

| SMILES | neutrophil number in peritoneal exudate | total cell number in peritoneal exudate |
| --- | --- | --- |
| Cc1nc(C(F)(F)F)cn1[C@H]1CCN(c2nnn(-c3ccc(Cl)cc3)c2C(C)C)C1=O [Compound 1.042] | dramatic decrease | dramatic decrease |

System: inflammatory cells recruited to the inflamed synovial fluid of the knee joints
Experiment: Rabbit model of destructive joint inflammation (rabbit LPS study)
Format: in vivo
Conditions: female New Zealand rabbits, intra-articular LPS 10 ng, oral dosing in 1% methocel 2 h before and 4 h after LPS, lavage at 16 h
Procedure: a) Rabbit Model of Destructive Joint Inflammation
A rabbit LPS study was conducted essentially as described in Podolin, et al. J. Immunol. 169(11):6435-6444 (2002). Female New Zealand rabbits (approximately 2 kilograms) were treated intra-articularly in both knees with LPS (10 ng). The compound of interest, for example 1.016, (formulated in 1% methocel) or vehicle (1% methocel) was dosed orally at a 5 ml/kg dose volume at two times (2 hours before the intra-articular LP S injection and 4 hours after the intra-articular LP S injection). Sixteen hours after the LP S injection, knees were lavaged and cells counts were performed. Beneficial effects of treatment were determined by reduction in the number of inflammatory cells recruited to the inflamed synovial fluid of the knee joints.

| SMILES | reduction in the number of inflammatory cells recruited to the inflamed synovial fluid of the knee joints |
| --- | --- |
| CC(C)c1c(N2CCC(n3cnc(C(F)(F)F)c3)C2=O)cnn1-c1ccc(F)cc1 (stereo not drawn) [Compound 1.016] | significant reduction in recruited inflammatory cells |
